In test [1] the test system is human skeletal myocytes (HSkM). The test is described as follows: MHC-positive myotube formation in primary human skeletal myocytes. In kind it is cell-based. Conditions: HSkM treated 24 hours in GM, then DM without TSA 48 hours. How it is done:
Cellular extracts were obtained and analyzed by Western blotting for the presence of MHC, tubulin, and myogenin. […] Nuclei were stained with DAPI. […] Additionally, RT-PCR was performed on RNA obtained form cells treated with TSA (T) or without (-) TSA with specific primers for either MCK or GAPDH. […] Nuclei were stained with DAPI. […] Cells were grown in GM and treated with TSA for 24 hours, then switched to DM in the absence of TSA for additional 48 hours. Nuclei were stained with DAPI. Additionally, a Western blot analysis of MHC and tubulin expression in either untreated or TSA-treated (T) HSkM is shown. […] Nuclei were stained with DAPI. Mouse muscle myoblast C2C12 cells (obtained from the American Type Culture Collection, ATCC CRL-1772) and CC42 cells (from Dr. Kenneth Walsh, Tufts University School of Medicine) were cultured in DMEM supplemented with 20% fetal bovine serum, 2 mM glutamine and 1× kanamycin (growth medium, GM). Cellular differentiation was induced with DMEM supplemented with 2% horse serum and 1× insulin, transferring, selenium (Life Technologies). Human skeletal myocytes (CC-2561) were purchased from Clonetics. […] Following transfections, luciferase activity was determined using the Dual-Luciferase reporter assay system (Promega) on a microtiter luminescence detection system (MLX, Dynex). […]

Test [2] concerns 4RE-luc, MEF2-luc, MCK-luc. The test is described as follows: Luciferase assay of transiently transfected myogenic reporters in skeletal myoblasts. In kind it is cell-based, mouse. The protocol:
Mouse muscle myoblast C2C12 cells (obtained from the American Type Culture Collection, ATCC CRL-1772) and CC42 cells (from Dr. Kenneth Walsh, Tufts University School of Medicine) were cultured in DMEM supplemented with 20% fetal bovine serum, 2 mM glutamine and 1× kanamycin (growth medium, GM). Cellular differentiation was induced with DMEM supplemented with 2% horse serum and 1× insulin, transferring, selenium (Life Technologies). Human skeletal myocytes (CC-2561) were purchased from Clonetics. Stable C2C12 cell lines with integrated reporters are described in Wu, Z., et al., Mol Cell Biol 20:3951-64 (2000). The MCK-luc, 4RE-luc, MEF2 reporter constructs have been described in Puri, P. L., et al., EMBO Journal 16:369-83 (1997a) and Sartorelli, V., et al., Molecular & Cellular Biology 17:1010-26 (1997). The E2F-luc plasmid is described in Helin, K., et al., Genes Dev 7:1850-61 (1993). The MLC-lacZ-nls plasmid is described in Wu, et al. (2000). […] Following transfections, luciferase activity was determined using the Dual-Luciferase reporter assay system (Promega) on a microtiter luminescence detection system (MLX, Dynex).
C2C12 and CC42 cells were exposed to sodium butyrate 5 mM (Sigma), trichostatin A 50 nM (Upstate Biotechnologies), or valproic acid 10 mM (Sigma) for 24 hours in GM (GM regimen). TSA was removed and the cells cultured in DM for 48 hrs before being analyzed. […]

Structures are written as SMILES. “Also recorded” adds a separate entry of the source.

As to `CC(/C=C/C(=O)NO)=C\[C@@H](C)C(=O)c1ccc(N(C)C)cc1` [TSA, trichostatin A], the “formation of MHC-positive myotubes and MHC expression levels” value in test [1] was “greatly enhanced the formation of MHC-positive myotubes and increased the MHC expression levels”. Further, the “HDAC1-mediated inhibition of 4RE-luc” value in test [2] (HDAC1 expression vector co-transfected) is recorded as “could be reversed”. Besides, the “transcription of transiently transfected myogenic reporter constructs” value in test [2] (treatment in GM or in DM) is on record as “stimulates transcription of the reporter constructs only when the DI inhibitors are applied to the cells cultured in GM; also recorded: activation of a transfected MCK-luc reporter”.
